Data on 70 compounds can be found in patent US10167270B2, “Substituted quinazoline compounds and uses thereof for modulating glucocerebrosidase activity” (Northwestern University, priority 2015, dated 2019).

The target in the first experiment is Glucocerebrosidase (Homo sapiens (Human), UniProt P04062). Description: Glucocerebrosidase activity assay with blue substrate (4MU-Glc).
Glucocerebrosidase, sequence (P04062 40-536): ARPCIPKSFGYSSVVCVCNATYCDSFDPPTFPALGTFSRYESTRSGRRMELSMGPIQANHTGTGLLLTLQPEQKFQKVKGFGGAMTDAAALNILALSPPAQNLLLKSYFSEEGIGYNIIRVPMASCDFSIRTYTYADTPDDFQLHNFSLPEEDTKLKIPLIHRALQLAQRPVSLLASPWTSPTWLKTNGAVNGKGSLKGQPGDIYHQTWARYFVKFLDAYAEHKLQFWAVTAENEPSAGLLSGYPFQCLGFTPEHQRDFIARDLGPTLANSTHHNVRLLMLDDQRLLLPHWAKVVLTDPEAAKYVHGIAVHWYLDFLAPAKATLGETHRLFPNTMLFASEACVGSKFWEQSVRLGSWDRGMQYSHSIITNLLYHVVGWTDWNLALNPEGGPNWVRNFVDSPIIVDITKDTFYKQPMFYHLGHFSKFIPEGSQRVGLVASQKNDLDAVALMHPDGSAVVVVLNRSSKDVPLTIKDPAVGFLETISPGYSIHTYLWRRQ
Conditions: not given
The class given is biochemical. Here is the method:
The compounds in DMSO solution 0.5 μL/well were transferred to a black 96-well plate. The final titration was 24 nM to 50 μM, 12 concentrations, 2 times dilution. […] After 5 min of incubation at room temperature, the enzyme reaction was initiated by the addition of 33 μL/well blue substrate. Final concentrations of the blue substrate (4MU-Glc) was 1.5 mM. The blue substrate reaction was terminated by the addition of 33 μL/well stop solution (1 M NaOH and 1 M glycine mixture, pH 10) after 30 min of incubation at 37° C. The fluorescence was then measured in the Biotek Synergy H1 multi-mode plate reader with Ex=365 nm and Em=440 nm.
Additional compounds were prepared and tested according to the procedures provided in the examples above.
Additional substituted quinazoline compounds were prepared and tested according to the procedures provided in the examples above.
For `CN(CCCCCCCCCCN(C)c1nc(-c2cccnc2)nc2ccccc12)c1nc(-c2cccnc2)nc2ccccc12` [compound 112], the “Activity AC50 or IC50 (activator)” value is reported as “Weak activator”.

Still in this experiment, the particulars now being: direction not given.
Regarding `CN(CCOc1ccccc1)c1nc(-c2ccccc2)nc2ccccc12` [compound 131], the “Activity AC50 or IC50” value was “Inactive”.
`CN(CCOc1ccccc1)c1nc(-c2cccc(F)c2)nc2ccccc12` [compound 132]: the “Activity AC50 or IC50” value is given as “Inactive”.
Still for that read-out and setting: the same measure for `CN(CCOc1ccccc1)c1nc(-c2cccs2)nc2ccccc12` [compound 125]: “Inactive”.
With `CN(CCOc1ccccc1)c1nc(-c2ccsc2)nc2ccccc12` [compound 126], the “Activity AC50 or IC50” value is given as “Inactive”.

Staying with this experiment, now noted: marked (act), activator, AC50.
As for `c1ccc(C2CCCN(c3nc(-c4cccnc4)nc4ccccc34)C2)cc1` (stereo not shown) [compound 82], the “IC50 or AC50 (act)” value is recorded as “Weak (act)”.
The same measure, in the same setting: the same measure for `CN1CCN(c2ccc(C(=O)N3CCN(c4nc(-c5cccnc5)nc5ccccc45)CC3)cc2)CC1` [compound 38]: “Weak (act)”.
Regarding `c1ccc(Nc2nc(-c3cccnc3)nc3ccccc23)cc1` [compound 50], the “IC50 or AC50 (act)” value was “Weak (act)”.
Regarding `Nc1nc(-c2cccnc2)nc2ccccc12` [compound 35], the “IC50 or AC50 (act)” value is listed as “Weak (act)”.
Consider `CC(C)(C)Nc1nc(-c2cccnc2)nc2ccccc12` [compound 54], for which the “IC50 or AC50 (act)” value is listed as “Weak (act)”.
Same read-out and setting: the same measure for `[N-]=[N+]=Nc1c(F)c(F)c(CNc2nc(-c3cccnc3)nc3ccccc23)c(F)c1F` [compound 37]: “Weak (act)”.

Still in this experiment, the particulars now being: marked (act), activator, AC50; read-out: IC50 or AC50 (act).
For `CN(Cc1nc2ccccc2[nH]1)c1nc(-c2cccnc2)nc2ccccc12` [compound 15], the AC50 turned out to be 8910 nM.
The same measure, in the same setting: the same measure for `c1cncc(-c2nc(NCCc3c[nH]c4ccccc34)c3ccccc3n2)c1` [compound 72]: 1280 nM.

Staying with this experiment, now noted: marked (inh), inhibitor.
With `CN1CCC(Nc2nc(-c3cccnc3)nc3ccccc23)CC1` [compound 45], the “IC50 or AC50 (inh)” value is “Weak (inh)”.
The same measure, in the same setting: the same measure for `CN(c1nc(-c2cccnc2)nc2ccccc12)[C@@H]1CCc2ccccc2C1` [compound 88]: “Weak (inh)”.

Staying with this experiment, now noted: marked (inh), inhibitor; read-out: IC50 or AC50 (inh).
With `c1cncc(-c2nc(NC3CCCC3)c3ccccc3n2)c1` [compound 39], the IC50 was 790 nM.
For `CC1CCC(Nc2nc(-c3cccnc3)nc3ccccc23)CC1` (stereo not shown) [compound 77], the IC50 is 20 nM.
Still for that read-out and setting: the same measure for `c1cncc(-c2nc(NCCC3CCCCC3)c3ccccc3n2)c1` [compound 63]: 282 nM; for `c1cncc(-c2nc(NC3CCCCC3)c3ccccc3n2)c1` [compound 40]: 177 nM; for `c1cncc(-c2nc(NCC3COc4ccccc4O3)c3ccccc3n2)c1` (stereo not shown) [compound 20]: 7940 nM.
On the same count and under the same terms, the same measure for `Ic1ccc2c(c1)CC(Nc1nc(-c3cccnc3)nc3ccccc13)C2` (stereo not shown) [compound 89]: 168 nM.
For the compound `c1ccc(CCCCNc2nc(-c3cccnc3)nc3ccccc23)cc1` [compound 53], the concentration for half-maximal inhibition (IC50) worked out at 1580 nM.
Same read-out and setting: the same measure for `CC1CCCCC1Nc1nc(-c2cccnc2)nc2ccccc12` (stereo not shown) [compound 48]: 89 nM; for `CN(c1nc(-c2cccnc2)nc2ccccc12)[C@H]1CCc2ccccc2C1` [compound 84]: 500 nM; for `CC1CCCC(Nc2nc(-c3cccnc3)nc3ccccc23)C1` (stereo not shown) [compound 86]: 79 nM.
Still for that read-out and setting: the same measure for `CN(c1nc(-c2cccnc2)nc2ccccc12)C1CCc2ccccc2C1` (stereo not shown) [compound 75]: 1580 nM; for `c1ccc(CCNc2nc(-c3cccnc3)nc3ccccc23)cc1` [compound 60]: 112 nM.
Same read-out and setting: the same measure for `c1cncc(-c2nc(NC3CCC3)c3ccccc3n2)c1` [compound 43]: 4470 nM.
`CC1(C)CCC(Nc2nc(-c3cccnc3)nc3ccccc23)CC1` [compound 85]: the IC50 was found to be 460 nM.
Regarding `c1cncc(-c2nc(NC3CCCCCCC3)c3ccccc3n2)c1` [compound 76], the half-maximal inhibitory concentration (IC50) was found to be 28 nM.
Same read-out and setting: the same measure for `Fc1cccc(CCNc2nc(-c3cccnc3)nc3ccccc23)c1` [compound 55]: 141 nM.
In the case of `c1ccc(CNc2nc(-c3cccnc3)nc3ccccc23)cc1` [compound 51], the IC50 turned out to be 7080 nM.
On the same count and under the same terms, the same measure for `CN(c1nc(-c2cccnc2)nc2ccccc12)C1Cc2ccccc2C1` [compound 2]: 2150 nM.
For `c1cncc(CCNc2nc(-c3cccnc3)nc3ccccc23)c1` [compound 70], the IC50 came to 5010 nM.
Same read-out and setting: the same measure for `Cc1ccc(CCNc2nc(-c3cccnc3)nc3ccccc23)cc1` [compound 73]: 1780 nM; for `c1cncc(-c2nc(NC3CCCc4ccccc43)c3ccccc3n2)c1` (stereo not shown) [compound 68]: 1120 nM; for `c1ccc(CCNc2nc(-c3cccnc3)nc3ccccc23)nc1` [compound 69]: 1120 nM.
`CC(C)N1CCC(Nc2nc(-c3cccnc3)nc3ccccc23)CC1` [compound 41]: the IC50 worked out at 35500 nM.
Same read-out and setting: the same measure for `c1cncc(-c2nc(NC34CC5CC(CC(C5)C3)C4)c3ccccc3n2)c1` [compound 79]: 1120 nM; for `c1cncc(-c2nc(NC3Cc4ccccc4C3)c3ccccc3n2)c1` [compound 1]: 7 nM; for `O=C(C1COc2ccccc2O1)N1CCN(c2nc(-c3cccnc3)nc3ccccc23)CC1` (stereo not shown) [compound 29]: 2240 nM.
Same read-out and setting: the same measure for `c1cncc(-c2nc(NC3CCc4ccccc43)c3ccccc3n2)c1` (stereo not shown) [compound 67]: 891 nM; for `FC1(F)CCC(Nc2nc(-c3cccnc3)nc3ccccc23)CC1` [compound 65]: 316 nM.
Same read-out and setting: the same measure for `c1cncc(-c2nc(NCC3CCCCC3)c3ccccc3n2)c1` [compound 57]: 354 nM; for `c1cncc(-c2nc(NC3CCCCCC3)c3ccccc3n2)c1` [compound 58]: 63 nM.

The same experiment, now with this note: marked activator, AC50.
For `CN(CCOc1ccc(C#CCOCCOCCNc2nc(-c3cccnc3)nc3ccccc23)cc1)c1nc(-c2cccnc2)nc2ccccc12` [compound 110], the “Activity AC50 or IC50 (activator)” value is “Weak activator”.
The same measure, in the same setting: the same measure for `COC(=O)CCCCCCCCC#Cc1ccc(OCCN(C)c2nc(-c3cccnc3)nc3ccccc23)cc1` [compound 109]: “Weak activator”; for `c1cncc(-c2nc(N3CCCOCC3)c3ccccc3n2)c1` [compound 116]: “Weak activator”; for `CN(CCOc1ccc(C#CCCCCCCCCC(=O)ON2C(=O)CCC2=O)cc1)c1nc(-c2cccnc2)nc2ccccc12` [compound 153]: “activator”.
On to `CN(c1nc(-c2cccnc2)nc2ccccc12)C1Cc2ccc(C#CCCCCCCCCC(=O)ON3C(=O)CCC3=O)cc2C1` (stereo not shown) [compound 105], for which the “Activity AC50 or IC50 (activator)” value is reported as “Weak activator”.
Still for that read-out and setting: the same measure for `CN(c1nc(-c2cccnc2)nc2ccccc12)C1CCCCCCC1` [compound 123]: “Weak activator”.

Staying with this experiment, now noted: marked activator, AC50; read-out: Activity AC50 or IC50 (activator).
For `CN(CCCc1ccccc1)c1nc(-c2cccnc2)nc2ccccc12` [compound 119], the half-maximal activity concentration (AC50) stood at 5010 nM.
The same measure, in the same setting: the same measure for `c1cncc(-c2nc(N3CCc4c([nH]c5ccccc45)C3)c3ccccc3n2)c1` [compound 94]: 2820 nM; for `c1cncc(-c2nc(N3CCc4[nH]c5ccccc5c4C3)c3ccccc3n2)c1` [compound 93]: 6310 nM.

The experiment is the same for the next values; noted with them: marked inhibitor.
On to `CN(CCOc1ccccc1)c1nc(-c2ccc(N)cc2)nc2ccccc12` [compound 144], for which the “Activity AC50 or IC50 (inhibitor)” value is listed as “Weak inhibitor”.

The experiment is the same for the next values; noted with them: marked inhibitor, nM indicated; read-out: Activity AC50 or IC50 (inhibitor).
Regarding `CC(C)(C)OC(=O)NCCOCCOCC(=O)Nc1ccc(-c2nc(NC3Cc4ccccc4C3)c3ccccc3n2)cc1` [compound 146], the half-inhibitory concentration (IC50) was 39.8 nM.
Still for that read-out and setting: the same measure for `CC(C)(C)OC(=O)NCCCCCC(=O)Nc1ccc(-c2nc(NC3Cc4ccccc4C3)c3ccccc3n2)cc1` [compound 145]: 5.6 nM; for `NCCCCCC(=O)Nc1ccc(-c2nc(NC3Cc4ccccc4C3)c3ccccc3n2)cc1` [compound 147]: 7.5 nM.
As for `O=C(CCCC[C@@H]1SC[C@@H]2NC(=O)N[C@@H]21)NCCOCCOCCOCCOCCC(=O)NCCCCCC(=O)Nc1ccc(-c2nc(NC3Cc4ccccc4C3)c3ccccc3n2)cc1` [compound 156], the half-maximal inhibitory concentration (IC50) was found to be 1.95 nM.

The same experiment, now with this note: marked inhibitor; read-out: Activity AC50 or IC50 (inhibitor).
For `Nc1ccc(-c2nc(NC3Cc4ccccc4C3)c3ccccc3n2)cc1` [compound 142], the 50% inhibitory concentration (IC50) is 7.1 nM.
With `CC(COc1ccccc1)Nc1nc(-c2cccnc2)nc2ccccc12` (stereo not shown) [compound 97], the IC50 worked out at 2510 nM.
Regarding `c1ccc(COCCNc2nc(-c3cccnc3)nc3ccccc23)cc1` [compound 140], the IC50 came to 11200 nM.
Still for that read-out and setting: the same measure for `CN(CCOCc1ccccc1)c1nc(-c2cccnc2)nc2ccccc12` [compound 141]: 11200 nM.
Same read-out and setting: the same measure for `Brc1ccc2c(c1)CC(Nc1nc(-c3cccnc3)nc3ccccc13)C2` (stereo not shown) [compound 100]: 178 nM.
For the compound `Oc1ccc2c(c1)C[C@@H](Nc1nc(-c3cccnc3)nc3ccccc13)CC2` [compound 98], the IC50 is 79 nM.
Same read-out and setting: the same measure for `CC(CNc1nc(-c2cccnc2)nc2ccccc12)Oc1ccccc1` (stereo not shown) [compound 92]: 5010 nM; for `NCCC#Cc1ccc2c(c1)CC(Nc1nc(-c3cccnc3)nc3ccccc13)C2` (stereo not shown) [compound 99]: 891 nM; for `CCCCCCCCNc1nc(-c2cccnc2)nc2ccccc12` [compound 95]: 2240 nM.
The same measure, in the same setting: the same measure for `c1cncc(-c2nc(NCCCCCCCCCCNc3nc(-c4cccnc4)nc4ccccc34)c3ccccc3n2)c1` [compound 108]: 141 nM; for `CC(C)(C)OC(=O)NCCC#Cc1ccc2c(c1)CC(Nc1nc(-c3cccnc3)nc3ccccc13)C2` (stereo not shown) [compound 96]: 560 nM.
